The target in this experiment is T1, Lysosomal acid glucosylceramidase (Bos taurus, UniProt Q2KHZ8).
T1 sequence (Q2KHZ8 whole entry): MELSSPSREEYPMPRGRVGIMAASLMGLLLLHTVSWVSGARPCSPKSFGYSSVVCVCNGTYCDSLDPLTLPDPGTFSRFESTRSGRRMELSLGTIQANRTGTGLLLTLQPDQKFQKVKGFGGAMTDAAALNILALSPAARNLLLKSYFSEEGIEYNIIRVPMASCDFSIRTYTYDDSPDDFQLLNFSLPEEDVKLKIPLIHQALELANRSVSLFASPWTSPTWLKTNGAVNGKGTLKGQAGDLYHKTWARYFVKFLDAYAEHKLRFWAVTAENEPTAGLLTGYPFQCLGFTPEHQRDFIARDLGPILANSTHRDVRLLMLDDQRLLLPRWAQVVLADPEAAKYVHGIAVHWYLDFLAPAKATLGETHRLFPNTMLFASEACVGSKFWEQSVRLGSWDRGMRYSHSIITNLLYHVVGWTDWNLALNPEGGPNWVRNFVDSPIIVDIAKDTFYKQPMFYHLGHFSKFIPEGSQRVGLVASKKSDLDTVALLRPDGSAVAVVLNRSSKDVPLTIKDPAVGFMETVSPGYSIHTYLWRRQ
As to the kind of experiment: Inhibition of bovine liver beta-glucosidase assessed as production of 4-methylumbelliferone using 4-methylumbelliferyl beta-D-glucoside as substrate by spectrophotometry.

As a reminder, the IC50 is the concentration at which inhibition is half-maximal.

On to `OC[C@H]1CNC[C@@H](O)[C@@H]1O`, for which the IC50 worked out at 31 µM. With `OC[C@H]1NCC[C@H](O)[C@@H]1O` [3-epifagomine] the figure was 5.6 µM. For the compound `OC[C@H]1NCC[C@@H](O)[C@@H]1O` [(2R,3R,4R)-2-Hydroxymethyl-piperidine-3,4-diol], the half-maximal inhibitory concentration (IC50) is 250 µM. As to `OC[C@@H]1CNC[C@H](O)[C@H]1O` [L-Isofagomine], the IC50 was 611 µM.

The record behind these values is BindingDB's records for doi:10.1016/j.bmc.2011.04.011 (University of Toyama, 2011).
